Values joined by “and” are separate entries in the source; they are usually repeats but may differ in a detail not shown here. Equal values may be shown once. Read-outs that look alike come from different tables or passages of the source.
Legend:
[1] = 4-h oral plasma pharmacokinetics and tissue distribution, male wild-type and Oatp1a/1b−/− mice; assay type: in vivo; conditions: 10 mg/kg oral; for Tmax: Table S2, median (range); for Fold change Cliver / Fold change SIC (% of dose) / Fold change ratio (SIC (%)-to-plasma) / Fold change ratio (brain-to-plasma) / Fold change ratio (liver-to-plasma) / Fold change ratio (testis-to-plasma) / Fold increase Cbrain / Fold increase Ctestis / Fold increase AUC0-4h: vs wild-type; for Kp at 4 h / concentration at 4 h / Cmax / AUC(0-t): male, po; for AUC(0-t): read-out: AUC0-4h
Description: (§1) Mice with similar average ages (and body weights) were randomly allocated in experimental groups as far as possible. Mice were maintained in a temperature-controlled and specific pathogen-free environment with a 12-h light and 12-h dark cycle and they received a standard diet (Transbreed, SDS Diets, Technilab-BMI, Someren, The Netherlands) and acidified water ad libitum. […] Given the objective main readout (repotrectinib plasma and tissue concentrations as measured by LC-MS/MS), no blinding method was applied.
Repotrectinib was dissolved in dimethyl sulfoxide (DMSO) at a concentration of 50 mg/mL. This stock solution was first diluted 3-fold with ethanol/polysorbate 80 (1/1; v/v), followed by further dilution with a 10 mM hydrochloric acid solution, yielding a dosing solution of 1 mg/mL, freshly prepared on the day of experiment. Final concentrations of the solvents in the administration solution were: 2%, 2%, 2%, and 94% (all v/v) for DMSO, ethanol, polysorbate 80, and 10 mM hydrochloric acid solution, respectively.
(§2) To minimize variation in absorption upon oral administration, mice were fasted for 2–3 h before repotrectinib (10 mg/kg body weight) was administered by gavage into the stomach at 10 µL/g body weight, with a blunt-ended needle. Tail vein serial blood samples were collected at 0.125, 0.25, 0.5, 1, 2 and 4 h using heparinized capillary tubes (Sarstedt, Nümbrecht, Germany) for the 8-h experiments. For the 4- and 2-h experiments, blood samplings were performed from the tail vein with the same schedule, but terminated at 2 and 1 h, respectively. Eight, four, or two hours after oral administration, mice were deeply anesthetized with 2–3% isoflurane, followed by cardiac puncture to collect blood in Eppendorf tubes containing heparin as an anticoagulant. Brain, liver, spleen, kidney, lung, small intestine, and testis were rapidly collected after sacrificing the mice by cervical dislocation. The small intestinal contents (SIC) were separated from small intestinal tissue (SI), which was flushed and rinsed with cold saline to remove any residual feces. Brain, liver, spleen, kidney, lung, SI, SIC, and testis were homogenized with 1, 3, 1, 2, 1, 3, 2, and 1 mL of 2% BSA (w/v), respectively. Plasma fraction was isolated from blood by centrifugation at 9000× g for 6 min at 4 °C. All samples were stored at −30 °C until analysis.
A sensitive and specific liquid chromatography-tandem mass spectrometry method using protein precipitation pre-treatment was adopted to quantify the concentration of repotrectinib in DMEM medium, plasma samples and tissue homogenates.
A non-compartmental model using the PKSolver add-in program for Microsoft Excel was adopted to calculate the pharmacokinetic parameters of repotrectinib. Oral availability was assessed by the plasma area under the curve (AUC), calculated using repotrectinib plasma concentration-time curves with the linear trapezoidal rule without extrapolating the infinity. Statistical testing was performed in Graphpad Prism7 (Graphpad Software, La Jolla, CA, USA). All data are presented as geometric means ± SD. Heteroscedastic data were log-transformed before applying statistical analysis. When differences between two groups were compared, the two-sided unpaired Student’s t test was used. One-way analysis of variance (ANOVA) was applied when multiple groups were compared, and the Bonferroni post hoc correction was used to accommodate multiple testing. Differences were considered statistically significant when P < 0.05.

[2] = Toxicity signs observed in mice after oral repotrectinib; assay type: in vivo; conditions: 10 mg/kg oral
Description: as §1, §2

[3] = Table S2, male Oatp1a/1b−/− mice
[4] = FVB, mouse, plasma, 10 mg/kg, Table S2, male Oatp1a/1b−/− mice
[5] = FVB, mouse, plasma, 10 mg/kg, Table S2, male wild-type mice

## C[C@H]1CNC(=O)c2cnn3ccc(nc23)N[C@H](C)c2cc(F)ccc2O1 [repotrectinib]
[1]; FVB, mouse, plasma, male wild-type mice, read-out: Tmax
  Tmax: 30 min
[1]; [3]
  SIC (% of dose): 8.52 ± 3.80 % of dose
  SIC (%)-to-plasma ratio: 5.81 ± 2.09 *10-3
  Fold change Cliver: 0.94
  Fold change SIC (% of dose): 1.53
  Fold change ratio (SIC (%)-to-plasma): 0.66
  Fold change ratio (brain-to-plasma): 1.20
  Fold change ratio (liver-to-plasma): 0.41
  Fold change ratio (testis-to-plasma): 0.79
  Fold increase Cbrain: 2.71
  Fold increase Ctestis: 1.70
[1]; Table S2, male Oatp1a/1b−/− mice, 10 mg/kg
  Fold increase AUC0-4h: 2.02 and 2
[1]; Table S2, male wild-type mice
  SIC (% of dose): 5.56 ± 1.34 % of dose
  SIC (%)-to-plasma ratio: 8.79 ± 2.41 *10-3
  Fold change Cliver: 1.00
  Fold change SIC (% of dose): 1.00
  Fold change ratio (SIC (%)-to-plasma): 1.00
  Fold change ratio (brain-to-plasma): 1.00
  Fold change ratio (liver-to-plasma): 1.00
  Fold change ratio (testis-to-plasma): 1.00
  Fold increase AUC0-4h: 1.00
  Fold increase Cbrain: 1.00
  Fold increase Ctestis: 1.00
[1]; male Oatp1a/1b−/− mice
  Tmax: 0.5 (0.25-1) h
[1]; male Oatp1a/1b−/− mice vs wild-type
  liver-to-plasma ratio, fold decrease: 2.5 fold
[1]; FVB, mouse, brain, 10 mg/kg, Table S2, male Oatp1a/1b−/− mice, read-out: Brain-to-plasma ratio
  Kp at 4 h: 0.18 ± 0.04
[1]; FVB, mouse, brain, 10 mg/kg, Table S2, male Oatp1a/1b−/− mice, read-out: Cbrain
  concentration at 4 h: 258 ± 31 ng/g
[1]; FVB, mouse, brain, 10 mg/kg, Table S2, male wild-type mice, read-out: Brain-to-plasma ratio
  Kp at 4 h: 0.15 ± 0.03
[1]; FVB, mouse, brain, 10 mg/kg, Table S2, male wild-type mice, read-out: Cbrain
  concentration at 4 h: 95.1 ± 23.5 ng/g
[1]; FVB, mouse, liver, 10 mg/kg, Table S2, male Oatp1a/1b−/− mice, read-out: Cliver
  concentration at 4 h: 6240 ± 1400 ng/g
[1]; FVB, mouse, liver, 10 mg/kg, Table S2, male Oatp1a/1b−/− mice, read-out: Liver-to-plasma ratio
  Kp at 4 h: 4.3 ± 0.5
[1]; FVB, mouse, liver, 10 mg/kg, Table S2, male wild-type mice, read-out: Cliver
  concentration at 4 h: 6630 ± 1160 ng/g
[1]; FVB, mouse, liver, 10 mg/kg, Table S2, male wild-type mice, read-out: Liver-to-plasma ratio
  Kp at 4 h: 10.5 ± 1.9
[1]; [4]
  Cmax: 5070 ± 590 ng/mL
  AUC(0-t): 14100 ± 1530 ng·h/mL
[1]; [5]
  Cmax: 3080 ± 1440 ng/mL
  AUC(0-t): 6990 ± 2460 ng·h/mL
[1]; FVB, mouse, testis, 10 mg/kg, Table S2, male Oatp1a/1b−/− mice, read-out: Ctestis
  concentration at 4 h: 264 ± 37 ng/g
[1]; FVB, mouse, testis, 10 mg/kg, Table S2, male Oatp1a/1b−/− mice, read-out: Testis-to-plasma ratio
  Kp at 4 h: 0.19 ± 0.05
[1]; FVB, mouse, testis, 10 mg/kg, Table S2, male wild-type mice, read-out: Ctestis
  concentration at 4 h: 155 ± 55 ng/g
[1]; FVB, mouse, testis, 10 mg/kg, Table S2, male wild-type mice, read-out: Testis-to-plasma ratio
  Kp at 4 h: 0.24 ± 0.07
[2]; Cyp3a−/− and Oatp1a/1b−/− mice
  toxicity signs: no noticeable signs of toxicity
[2]; female Abcb1a/1b;Abcg2−/− mice
  time at which signs of toxicity disappeared: around 4 h
  time of toxicity signs after oral administration: 1 to 2 h
[2]; female Abcb1a/1b;Abcg2−/− mice, hypoactivity and continuously closed eyes
  toxicity signs: mild toxicity signs
[2]; female wild-type mice
  toxicity signs: no noticeable toxicity symptoms

Source: article PMC8619046, “ABCB1 and ABCG2 Control Brain Accumulation and Intestinal Disposition of the Novel ROS1/TRK/ALK Inhibitor Repotrectinib, While OATP1A/1B, ABCG2, and CYP3A Limit Its Oral Availability” (Pharmaceutics, 2021)
